The structures appear in SMILES notation.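 96-well plates; 48 h exposure; 5 concentrations. Endpoints by linear interpolation between flanking doses. Not reached: highest tested concentration assigned. TGI: total growth inhibition.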

Among the test systems are SNB-19 CNS; U251 CNS; UO-31 renal; HCT-15 colon; SK-OV-3 ovarian; NCI-H460 lung; SK-MEL-2 melanoma; SN12C renal; SNB-75 CNS; COLO 205 colon; HCT-116 colon; NCI-H522 lung; OVCAR-8 ovarian; MDA-MB-435; MDA-MB-231 breast; NCI-H226 lung.
Common to all, as to assay: NCI tumour cell line growth inhibition, 48 h

On to `COc1ccc2c([nH]c3c(O)c(-c4c(C)cc5c([nH]c6c(CC=C(C)C)c(OC)ccc65)c4O)c(C)cc32)c1CC=C(C)C`, for which the TGI with SNB-19 CNS, with U251 CNS, with UO-31 renal, in the test with HCT-15 colon, in the test on SK-OV-3 ovarian and in the test with NCI-H460 lung was more than 100 µM each time. For the same compound, the TGI in the test on SK-MEL-2 melanoma, with SN12C renal, in the test on SNB-75 CNS, in the test on COLO 205 colon, with HCT-116 colon and with NCI-H522 lung was more than 100 µM each time. In addition, the TGI in the test on OVCAR-8 ovarian was more than 100 µM.
For the compound `N#Cc1nc(-c2cccc(-c3nc(C#N)c(N)o3)n2)oc1N`, the TGI in the test with SNB-19 CNS, in the test with U251 CNS, in the test with MDA-MB-435, in the test with UO-31 renal, in the test on HCT-15 colon and in the test on MDA-MB-231 breast was more than 100 µM in each case. The TGI in the test on SK-OV-3 ovarian, with NCI-H460 lung, in the test on SK-MEL-2 melanoma, in the test with SN12C renal, in the test with SNB-75 CNS and in the test with COLO 205 colon was more than 100 µM in each case. For the same compound, the TGI in the test with HCT-116 colon, in the test on NCI-H226 lung, in the test with NCI-H522 lung and with OVCAR-8 ovarian was more than 100 µM in each case.
For the compound `O=c1c2ccccc2nc(-c2ccccc2)n1NC(=S)Nc1cccc(Cl)c1`, the TGI in the test with U251 CNS, in the test on UO-31 renal, in the test on HCT-15 colon, in the test on SK-OV-3 ovarian, in the test with NCI-H460 lung and with SK-MEL-2 melanoma was more than 100 µM throughout. Also, the TGI in the test on SN12C renal was more than 100 µM; in the test on SNB-75 CNS, 59.6 µM; in the test on COLO 205 colon, more than 100 µM; in the test on HCT-116 colon it was more than 100 µM; with NCI-H226 lung, more than 100 µM; with NCI-H522 lung it was more than 100 µM. Also, the TGI with OVCAR-8 ovarian was more than 100 µM.
Turning to `C(=C/c1nc2ccccc2o1)/c1ccc2c(c1)OCO2`, the TGI was 38.6 µM with SNB-19 CNS; 42.1 µM in the test on U251 CNS; 49.5 µM in the test with UO-31 renal; more than 100 µM in the test on HCT-15 colon; 53.1 µM in the test with SK-OV-3 ovarian; more than 100 µM in the test on NCI-H460 lung. In addition, the TGI in the test with SK-MEL-2 melanoma is 36.3 µM; with SN12C renal it was more than 100 µM; with SNB-75 CNS, more than 63.8 µM; in the test on COLO 205 colon, more than 100 µM; in the test with HCT-116 colon it was 33.3 µM; with NCI-H226 lung it was 55.2 µM. The TGI was 51.3 µM in the test on NCI-H522 lung and more than 100 µM in the test with OVCAR-8 ovarian.
On to `CC(=O)Nc1ccc(-c2nnc(SCC(=O)Nc3ccc(Cl)cc3)o2)cc1`, for which the TGI in the test on SNB-19 CNS worked out at 35.7 µM; in the test with U251 CNS, 12.9 µM; in the test on UO-31 renal, 33.6 µM; in the test on HCT-15 colon, 40 µM; with SK-OV-3 ovarian, 47.1 µM; in the test on NCI-H460 lung, 36.8 µM. Also, the TGI with SK-MEL-2 melanoma is 49 µM; in the test on SN12C renal, 27.5 µM; in the test with SNB-75 CNS, 39.7 µM; in the test with COLO 205 colon, 34.6 µM; in the test with HCT-116 colon, 20.2 µM; in the test with NCI-H226 lung it was 37 µM. For the same compound, the TGI is 5.98 µM with NCI-H522 lung and 74.1 µM in the test on OVCAR-8 ovarian.
Consider `CCOC(C)OC1CC(n2cc(C)c(=O)[nH]c2=O)OC1CO` (centres undefined), for which the TGI in the test with SNB-19 CNS, in the test with U251 CNS, in the test with UO-31 renal, in the test with HCT-15 colon, with SK-OV-3 ovarian and in the test on NCI-H460 lung was more than 100 µM throughout. Also, the TGI with SK-MEL-2 melanoma, with SN12C renal, with COLO 205 colon, in the test with HCT-116 colon, with NCI-H226 lung and with NCI-H522 lung was more than 100 µM in each case. Besides, the TGI in the test with OVCAR-8 ovarian is more than 100 µM.
For `CC(=O)c1sc2[n+](c1C)C(=O)/C(=C\c1ccccc1Cl)S2`, the TGI was 47.6 µM in the test with SNB-19 CNS; 30.5 µM in the test on U251 CNS; 28.9 µM with MDA-MB-435; 34 µM with UO-31 renal; 27.1 µM with HCT-15 colon; 52.9 µM in the test with MDA-MB-231 breast. For the same compound, the TGI is 47.7 µM in the test on SK-OV-3 ovarian; 30.2 µM in the test on NCI-H460 lung; 55.8 µM in the test with SK-MEL-2 melanoma; 78.8 µM in the test on SN12C renal; 65.9 µM with SNB-75 CNS; 28 µM with COLO 205 colon. For the same compound, the TGI is 37.6 µM in the test with HCT-116 colon, 30.9 µM in the test on NCI-H226 lung, 39 µM with NCI-H522 lung and 77.5 µM in the test with OVCAR-8 ovarian.
Take `NC(=O)Oc1ccccc1`: the TGI with SNB-19 CNS, in the test on U251 CNS, in the test with MDA-MB-435, in the test on UO-31 renal, with HCT-15 colon and in the test with MDA-MB-231 breast was more than 100 µM in each case. Besides, the TGI in the test on SK-OV-3 ovarian, in the test on NCI-H460 lung, in the test with SN12C renal, with SNB-75 CNS, in the test on COLO 205 colon and with HCT-116 colon was more than 100 µM each time. Also, the TGI in the test on NCI-H226 lung, with NCI-H522 lung and in the test with OVCAR-8 ovarian was more than 100 µM throughout.
Take `O=C(CCC1CCCCN1)Nc1ccc2c(c1)C(=O)c1ccc(NC(=O)CCN3CCCCC3)cc1C2=O` (centres undefined): the TGI with U251 CNS was determined as 23.8 µM; in the test on UO-31 renal it was 2.68 µM; with SK-OV-3 ovarian, 70.1 µM; with NCI-H460 lung, 23.9 µM; with SN12C renal, 4.34 µM; in the test on SNB-75 CNS, 16.4 µM. For the same compound, the TGI in the test with COLO 205 colon is 2.65 µM; with HCT-116 colon, 4.96 µM; in the test on NCI-H226 lung, 18.6 µM; in the test with OVCAR-8 ovarian, 9.73 µM.
